Settings: 101.33 kPa, Liquid; for speed of sound: Pulse-echo method; for mass density: Vibrating tube method

CCCC(=O)[O-].C[NH2+]CCO [N-methyl-2-hydroxyethylammonium butanoate]
Settings	mass density [kg/m3]	speed of sound [m/s]	viscosity [mPa·s]
278.15 K	1052.71	1683.5	–
278.4 K	1052.55	1682.5	–
278.65 K	1052.38	1681.5	–
278.9 K	1052.21	1680.6	–
279.15 K	1052.04	1679.6	–
279.4 K	1051.88	1678.7	–
279.65 K	1051.71	1677.7	–
279.9 K	1051.54	1676.8	–
280.15 K	1051.38	1675.8	–
280.4 K	1051.21	1674.8	–
280.65 K	1051.04	1673.9	–
280.9 K	1050.88	1673	–
281.15 K	1050.71	1672	–
281.4 K	1050.54	1671.1	–
281.65 K	1050.38	1670.1	–
281.9 K	1050.21	1669.2	–
282.15 K	1050.02	1668.4	–
282.4 K	1049.85	1667.4	–
282.65 K	1049.69	1666.6	–
282.9 K	1049.52	1665.7	–
283.15 K	1049.35	1664.8	–
283.4 K	1049.19	1663.8	–
283.65 K	1049.02	1663	–
283.9 K	1048.85	1662.1	–
284.15 K	1048.68	1661.2	–
284.4 K	1048.52	1660.3	–
284.65 K	1048.35	1659.4	–
284.9 K	1048.18	1658.5	–
285.15 K	1048.02	1657.7	–
285.4 K	1047.85	1656.8	–
285.65 K	1047.68	1655.9	–
285.9 K	1047.52	1655	–
286.15 K	1047.35	1654.2	–
286.4 K	1047.18	1653.3	–
286.65 K	1047.01	1652.4	–
286.9 K	1046.85	1651.6	–
287.15 K	1046.68	1650.7	–
287.4 K	1046.51	1649.9	–
287.65 K	1046.34	1649	–
287.9 K	1046.17	1648.1	–
288.15 K	1046.01	1647.3	609.15
288.4 K	1045.84	1646.5	–
288.65 K	1045.67	1645.6	–
288.9 K	1045.5	1644.8	–
289.15 K	1045.34	1643.9	–
289.4 K	1045.17	1643	–
289.65 K	1045	1642.2	–
289.9 K	1044.83	1641.4	–
290.15 K	1044.66	1640.5	516.28
290.4 K	1044.5	1639.7	–
290.65 K	1044.33	1638.9	–
290.9 K	1044.16	1638	–
291.15 K	1043.99	1637.2	–
291.4 K	1043.82	1636.3	–
291.65 K	1043.65	1635.5	–
291.9 K	1043.48	1634.7	–
292.15 K	1043.32	1633.9	–
292.4 K	1043.15	1633.1	–
292.65 K	1042.98	1632.3	–
292.9 K	1042.81	1631.5	–
293.15 K	1042.64	1630.6	433.8
293.4 K	1042.47	1629.8	–
293.65 K	1042.3	1629	–
293.9 K	1042.13	1628.2	–
294.15 K	1041.96	1627.4	–
294.4 K	1041.79	1626.6	–
294.65 K	1041.63	1625.7	–
294.9 K	1041.45	1624.9	–
295.15 K	1041.29	1624.1	–
295.4 K	1041.12	1623.3	–
295.65 K	1040.95	1622.5	352.2
295.9 K	1040.78	1621.7	–
296.15 K	1040.61	1620.9	–
296.4 K	1040.44	1620.1	–
296.65 K	1040.27	1619.3	–
296.9 K	1040.1	1618.5	–
297.15 K	1039.93	1617.7	–
297.4 K	1039.76	1617	–
297.65 K	1039.59	1616.1	–
297.9 K	1039.42	1615.3	–
298.15 K	1039.24	1614.5	298.95
298.4 K	1039.08	1613.8	–
298.65 K	1038.9	1613	–
298.9 K	1038.73	1612.2	–
299.15 K	1038.56	1611.4	–
299.4 K	1038.39	1610.6	–
299.65 K	1038.22	1609.8	–
299.9 K	1038.05	1609	–
300.15 K	1037.88	1608.2	–
300.4 K	1037.71	1607.4	–
300.65 K	1037.54	1606.6	256.7
300.9 K	1037.37	1605.8	–
301.15 K	1037.2	1605	–
301.4 K	1037.03	1604.2	–
301.65 K	1036.87	1603.4	–
301.9 K	1036.7	1602.6	–
302.15 K	1036.54	1601.8	–
302.4 K	1036.38	1601	–
302.65 K	1036.2	1600.2	–
302.9 K	1036.04	1599.5	–
303.15 K	1035.87	1598.7	219.16
303.4 K	1035.71	1597.9	–
303.65 K	1035.54	1597.1	–
303.9 K	1035.38	1596.3	–
304.15 K	1035.21	1595.5	–
304.4 K	1035.04	1594.8	–
304.65 K	1034.88	1594	–
304.91 K	1034.71	1593.2	–
305.15 K	1034.54	1592.4	–
305.4 K	1034.38	1591.6	–
305.45 K	–	–	186.26
305.65 K	1034.21	1590.8	–
305.9 K	1034.04	1590.1	–
306.15 K	1033.88	1589.3	–
306.4 K	1033.71	1588.5	–
306.65 K	1033.54	1587.7	–
306.9 K	1033.38	1587	–
307.15 K	1033.2	1586.2	–
307.4 K	1033.04	1585.4	–
307.65 K	1032.87	1584.6	–
307.9 K	1032.7	1583.8	–
308.15 K	1032.53	1583.1	162.8
308.4 K	1032.37	1582.3	–
308.65 K	1032.2	1581.5	–
308.9 K	1032.03	1580.7	–
309.15 K	1031.86	1580	–
309.4 K	1031.69	1579.2	–
309.65 K	1031.52	1578.4	–
309.9 K	1031.35	1577.6	–
310.15 K	1031.18	1576.8	–
310.4 K	1031.01	1576	–
310.65 K	1030.85	1575.3	141.4
310.91 K	1030.68	1574.5	–
311.16 K	1030.51	1573.7	–
311.4 K	1030.34	1572.9	–
311.65 K	1030.17	1572.2	–
311.91 K	1030	1571.4	–
312.16 K	1029.83	1570.6	–
312.41 K	1029.65	1569.8	–
312.65 K	–	–	127.1
312.66 K	1029.49	1569	–
312.91 K	1029.32	1568.3	–
313.16 K	1029.14	1567.5	–
313.4 K	1028.97	1566.7	–
313.66 K	1028.8	1565.9	–
313.9 K	1028.64	1565.2	–
314.15 K	1028.46	1564.4	–
314.4 K	1028.29	1563.6	–
314.65 K	1028.12	1562.9	–
314.9 K	1027.95	1562.1	–
315.15 K	1027.78	1561.3	107.78
315.41 K	1027.61	1560.5	–
315.65 K	1027.43	1559.8	–
315.91 K	1027.26	1559	–
316.16 K	1027.09	1558.2	–
316.41 K	1026.92	1557.5	–
316.66 K	1026.75	1556.7	–
316.91 K	1026.58	1555.9	–
317.16 K	1026.41	1555.2	–
317.4 K	1026.23	1554.3	–
317.66 K	1026.06	1553.4	–
317.91 K	1025.89	1552.6	–
318.15 K	–	–	93.33
318.16 K	1025.72	1551.9	–
318.41 K	1025.55	1551.1	–
318.65 K	1025.37	1550.3	–
318.9 K	1025.2	1549.5	–
319.16 K	1025.03	1548.7	–
319.41 K	1024.86	1548	–
319.65 K	1024.69	1547.2	–
319.91 K	1024.51	1546.4	–
320.15 K	–	–	79.57
320.16 K	1024.34	1545.6	–
320.41 K	1024.17	1544.8	–
320.65 K	1024	1544	–
320.91 K	1023.82	1543.3	–
321.15 K	1023.65	1542.5	–
321.41 K	1023.47	1541.7	–
321.66 K	1023.3	1540.9	–
321.9 K	1023.13	1540.1	–
322.15 K	1022.96	1539.3	–
322.41 K	1022.78	1538.6	–
322.65 K	1022.61	1537.8	–
322.91 K	1022.43	1537	–
323.15 K	–	–	71.53
323.16 K	1022.26	1536.2	–
323.41 K	1022.08	1535.4	–
323.65 K	1021.91	1534.7	–
323.91 K	1021.74	1533.9	–
324.16 K	1021.56	1533.1	–
324.41 K	1021.39	1532.3	–
324.65 K	1021.22	1531.5	–
324.9 K	1021.04	1530.8	–
325.16 K	1020.87	1530	–
325.4 K	1020.69	1529.2	–
325.66 K	1020.52	1528.4	–
325.9 K	1020.35	1527.7	–
326.16 K	1020.17	1526.9	–
326.41 K	1019.99	1526.1	–
326.66 K	1019.82	1525.3	–
326.9 K	1019.65	1524.5	–
327.16 K	1019.47	1523.7	–
327.4 K	1019.29	1522.9	–
327.66 K	1019.12	1522.2	–
327.9 K	1018.95	1521.4	–
328.15 K	1018.77	1520.6	–
328.41 K	1018.6	1519.8	–
328.66 K	1018.42	1519	–
328.9 K	1018.25	1518.2	–
329.16 K	1018.07	1517.4	–
329.4 K	1017.9	1516.6	–
329.65 K	1017.72	1515.9	–
329.9 K	1017.54	1515.1	–
330.16 K	1017.37	1514.3	–
330.41 K	1017.19	1513.5	–
330.66 K	1017.01	1512.7	–
330.91 K	1016.84	1511.9	–
331.16 K	1016.66	1511.1	–
331.41 K	1016.48	1510.3	–
331.66 K	1016.3	1509.6	–
331.91 K	1016.13	1508.8	–
332.16 K	1015.96	1508	–
332.41 K	1015.78	1507.2	–
332.66 K	1015.6	1506.4	–
332.91 K	1015.43	1505.6	–
333.16 K	1015.25	1504.9	–
333.41 K	1015.07	1504.1	–
333.66 K	1014.89	1503.3	–
333.91 K	1014.72	1502.5	–
334.16 K	1014.54	1501.7	–
334.41 K	1014.36	1500.9	–
334.66 K	1014.18	1500.2	–
334.91 K	1014.01	1499.4	–
335.16 K	1013.83	1498.6	–
335.41 K	1013.65	1497.8	–
335.66 K	1013.47	1497	–
335.91 K	1013.3	1496.2	–
336.16 K	1013.12	1495.4	–
336.41 K	1012.94	1494.7	–
336.66 K	1012.76	1493.9	–
336.9 K	1012.58	1493.1	–
337.16 K	1012.4	1492.3	–
337.4 K	1012.22	1491.5	–
337.66 K	1012.04	1490.8	–
337.9 K	1011.86	1490	–
338.15 K	1011.69	1489.3	–

From the NIST ThermoML archive (doi:10.1021/je900550v)
